# Test results reported in US20080064871A1, “Production Method of Nitrogen-Containing Fused Ring Compounds” (Japan Tobacco Inc., priority 2006, published 2008).
# pIC50: −log10 of the molar value.
# Biological target: T1, human URAT1 (Homo sapiens, UniProt Q96S37)
# T1 construct: Human URAT1 full length cDNA was subcloned to expression vector pcDNA3.1; expressed in transfected cells; host or cells: HEK293 cells (pcDNA3.1, geneticin-selected)
# T1 sequence (Q96S37 1-553): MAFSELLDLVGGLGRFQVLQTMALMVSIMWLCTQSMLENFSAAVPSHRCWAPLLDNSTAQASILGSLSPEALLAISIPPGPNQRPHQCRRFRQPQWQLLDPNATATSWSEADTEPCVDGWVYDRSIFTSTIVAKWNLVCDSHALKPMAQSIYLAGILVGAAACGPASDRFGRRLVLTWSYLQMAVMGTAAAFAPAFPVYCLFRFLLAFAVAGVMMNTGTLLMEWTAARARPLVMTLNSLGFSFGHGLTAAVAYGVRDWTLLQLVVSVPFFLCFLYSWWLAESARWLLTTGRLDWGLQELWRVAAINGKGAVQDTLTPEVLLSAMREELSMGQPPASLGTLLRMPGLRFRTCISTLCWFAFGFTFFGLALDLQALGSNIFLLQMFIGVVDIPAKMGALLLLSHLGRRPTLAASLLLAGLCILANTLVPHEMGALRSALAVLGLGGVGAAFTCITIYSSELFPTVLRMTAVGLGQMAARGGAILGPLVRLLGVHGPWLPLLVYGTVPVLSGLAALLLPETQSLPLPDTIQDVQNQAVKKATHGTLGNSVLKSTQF
# Test: Uric acid transport inhibitory test using human URAT1-expressing cells
# Format: cell-based
# Conditions: human URAT1 expressing HEK293 cells, uptake of 14C-labeled uric acid for 5 min, room temperature; read-out: hURAT1 (IC50, concentration necessary for inhibiting the uric acid transport rate by 50%)
# From the text: Reference Experimental Example 1 Uric Acid Transport Inhibitory Test Using Human Urat1-Expressing Cells
# Human URAT1 full length cDNA was subcloned to expression vector pcDNA3.1 and human URAT1 gene was transfected into human embryonic kidney derived cell line (HEK293 cells) by liposome method using Lipofectamine2000. Simultaneously, HEK293 cells transfected with expression vector pcDNA3.1 alone (hereinafter mock cells) were also produced. HEK293 cells expressing human URAT1 gene or mock cells were selected with geneticin resistance as an index. The functional expression of human URAT1 gene was confirmed by a method similar to the following method, using transport of uric acid labeled with ^14C into the cells as an index.
# Human URAT1 expressing HEK293 cells or mock cells were cultured in Dulbecco's modified Eagle's MEM medium (high glucose) containing 10% fetal bovine serum, 0.5 mg/mL geneticin sulfate, 100 units/mL penicillin and 100 μg/mL streptomycin under the conditions of 37° C. and 5% CO2 in an incubator. The cells were plated in a 96 well plate (poly-D-Lysine coated) at 1×10^5 cells/well and the following uric acid transport inhibitory test was performed 24 hr later. This test was performed at room temperature.
# After the medium was removed by aspiration from each well, the cells were washed once with Hank's Balanced Salt Solution (HBSS) and preincubated with HBSS ([…]) for 5 min. HBSS was aspirated and an assay buffer (wherein NaCl in the above-mentioned HBSS had been substituted with Na-gluconate) containing various concentrations of the Example compound and a radioactive ligand (uric acid labeled with 14C; final concentration […]) was added to each well at […] and an uptake reaction was carried out for 5 min. After the reaction, the cells were washed twice with ice-cold HBSS ([…]), and Microscin ti TM 20 (PerkinElmer) was added at […]. The cells were lysed by stirring and the radioactivity of each well was measured in a liquid scintillation counter (TOP COUNT, Packard).
# The uric acid transport rate (%) of the Example compound at each concentration was calculated relative to the radioactivity (difference in radioactivity between human URAT1 expressing HEK293 cells and mock cells without addition of Example compound (DMSO addition)) showing URAT1 specific uric acid transport as 100%, and the concentration (IC50) of the Example compound necessary for inhibiting the uric acid transport rate by 50% was determined. In Table-Table, “+++” means IC50 value of less than 100 nM, “++” means IC50 value of 100 nM to less than 1000 nM, and “+” means IC50 value of 1000 nM to less than 3000 nM.
row,pIC50,SMILES
1,> 7.00,"O=C(c1cc(Cl)c(O)c(Cl)c1)N1CCOc2ccccc21 [Example 3, (3,5-dichloro-4-hydroxyphenyl)-(2,3-dihydrobenzo[1,4]oxazin-4-yl)-methanone]"
2,> 7.00,"O=C(c1cc(Br)c(O)c(Br)c1)N1CCOc2ccccc21 [Example 4, (3,5-dibromo-4-hydroxyphenyl)-(2,3-dihydrobenzo[1,4]oxazin-4-yl)-methanone]"
3,> 7.00,"O=C(c1cc(I)c(O)c(I)c1)N1CCOc2ccccc21 [Example 5, (2,3-dihydrobenzo[1,4]oxazin-4-yl)-(4-hydroxy-3,5-diiodophenyl)-methanone]"
4,6.00 to 7.00,"Cc1cc(C(=O)N2CCOc3ccccc32)cc(C)c1O [Example 7, (2,3-dihydrobenzo[1,4]oxazin-4-yl)-(4-hydroxy-3,5-dimethylphenyl)-methanone]"
5,> 7.00,"Cc1cccc2c1N(C(=O)c1cc(Cl)c(O)c(Cl)c1)CCO2 [Example 14, (3,5-dichloro-4-hydroxyphenyl)-(5-methyl-2,3-dihydrobenzo[1,4]oxazin-4-yl)-methanone]"
6,> 7.00,"Cc1cccc2c1OCCN2C(=O)c1cc(Cl)c(O)c(Cl)c1 [Example 15, (3,5-dichloro-4-hydroxyphenyl)-(8-methyl-2,3-dihydrobenzo[1,4]oxazin-4-yl)-methanone]"
7,> 7.00,"O=C(c1cc(Cl)c(O)c(Cl)c1)N1CCOc2ccc3ccccc3c21 [Example 16, (3,5-dichloro-4-hydroxyphenyl)-(2,3-dihydronaphtho[2,1-b][1,4]oxazin-1-yl)-methanone]"
8,6.00 to 7.00,"COc1ccc2c(c1)OCCN2C(=O)c1cc(Cl)c(O)c(Cl)c1 [Example 18, (3,5-dichloro-4-hydroxyphenyl)-(7-methoxy-2,3-dihydrobenzo[1,4]oxazin-4-yl)-methanone]"
9,6.00 to 7.00,"O=C(c1cc(Cl)c(O)c(Cl)c1)N1CCOc2cc(O)ccc21 [Example 20, (3,5-dichloro-4-hydroxyphenyl)-(7-hydroxy-2,3-dihydrobenzo[1,4]oxazin-4-yl)-methanone]"
10,6.00 to 7.00,"CCN(CC)S(=O)(=O)c1ccc2c(c1)N(C(=O)c1cc(Cl)c(O)c(Cl)c1)CCO2 [Example 21, 4-(3,5-dichloro-4-hydroxybenzoyl)-3,4-dihydro-2H-benzo[1,4]oxazine-6-sulfonic acid diethylamide]"
11,5.52 to 6.00,"CC(C)(C)c1ccc2c(c1)N(C(=O)c1cc(Cl)c(O)c(Cl)c1)CCO2 [Example 23, (6-tert-butyl-2,3-dihydrobenzo[1,4]oxazin-4-yl)-(3,5-dichloro-4-hydroxyphenyl)-methanone]"
12,5.52 to 6.00,"O=C1COc2ccccc2N1C(=O)c1cc(Cl)c(O)c(Cl)c1 [Example 24, 4-(3,5-dichloro-4-hydroxybenzoyl)-4H-benzo[1,4]oxazin-3-one]"
13,6.00 to 7.00,"O=C(c1cc(Cl)c(O)c(Cl)c1)N1CCCc2ccccc21 [Example 26, (3,5-dichloro-4-hydroxyphenyl)-(3,4-dihydro-2H-quinolin-1-yl)-methanone]"
14,5.52 to 6.00,"O=C(c1cnc(O)c(Cl)c1)N1CCOc2ccccc21 [Example 29, (5-chloro-6-hydroxypyridin-3-yl)-(2,3-dihydrobenzo[1,4]oxazin-4-yl)-methanone]"
15,6.00 to 7.00,"O=C(c1cc(Cl)c(O)c(Cl)c1)N1CCOc2ccc(S(=O)(=O)N3CCCC3)cc21 [Example 33, (3,5-dichloro-4-hydroxyphenyl)-[6-(pyrrolidine-1-sulfonyl)-2,3-dihydrobenzo[1,4]oxazin-4-yl]-methanone]"

# Continued, molecule first:
row,SMILES,pIC50
1,"O=C(c1ccc(O)c(Cl)c1)N1CCOc2ccccc21 [Example 1, (3-chloro-4-hydroxyphenyl)-(2,3-dihydrobenzo[1,4]oxazin-4-yl)-methanone]",> 7.00
2,"O=C(c1ccc(O)c(Br)c1)N1CCOc2ccccc21 [Example 2, (3-bromo-4-hydroxyphenyl)-(2,3-dihydrobenzo[1,4]oxazin-4-yl)-methanone]",> 7.00
3,"O=C(c1cc(F)c(O)c(F)c1)N1CCOc2ccccc21 [Example 6, (3,5-difluoro-4-hydroxyphenyl)-(2,3-dihydrobenzo[1,4]oxazin-4-yl)-methanone]",6.00 to 7.00
4,"O=C(c1cc(Cl)c(O)c(Cl)c1)N1CCSc2ccccc21 [Example 8, (3,5-dichloro-4-hydroxyphenyl)-(2,3-dihydrobenzo[1,4]thiazin-4-yl)-methanone]",6.00 to 7.00
5,"O=C(c1cc(Cl)c(O)c(Cl)c1)N1CCS(=O)(=O)c2ccccc21 [Example 10, (3,5-dichloro-4-hydroxyphenyl)-(1,1-dioxo-2,3-dihydro-1H-1λ^6-benzo[1,4]thiazin-4-yl)-methanone]",6.00 to 7.00
6,"Oc1c(Cl)cc(C(=S)N2CCOc3ccccc32)cc1Cl [Example 11, (3,5-dichloro-4-hydroxyphenyl)-(2,3-dihydrobenzo[1,4]oxazin-4-yl)-methanethione]",> 7.00
7,"Cc1ccc2c(c1)N(C(=O)c1cc(Cl)c(O)c(Cl)c1)CCO2 [Example 12, (3,5-dichloro-4-hydroxyphenyl)-(6-methyl-2,3-dihydrobenzo[1,4]oxazin-4-yl)-methanone]",> 7.00
8,"Cc1ccc2c(c1)OCCN2C(=O)c1cc(Cl)c(O)c(Cl)c1 [Example 13, (3,5-dichloro-4-hydroxyphenyl)-(7-methyl-2,3-dihydrobenzo[1,4]oxazin-4-yl)-methanone]",6.00 to 7.00
9,"COc1ccc2c(c1)N(C(=O)c1cc(Cl)c(O)c(Cl)c1)CCO2 [Example 17, (3,5-dichloro-4-hydroxyphenyl)-(6-methoxy-2,3-dihydrobenzo[1,4]oxazin-4-yl)-methanone]",> 7.00
10,"O=C(c1cc(Cl)c(O)c(Cl)c1)N1CCOc2ccc(O)cc21 [Example 19, (3,5-dichloro-4-hydroxyphenyl)-(6-hydroxy-2,3-dihydrobenzo[1,4]oxazin-4-yl)-methanone]",6.00 to 7.00
11,"O=S(=O)(c1cc(Cl)c(O)c(Cl)c1)N1CCOc2ccccc21 [Example 22, 2,6-dichloro-4-(2,3-dihydrobenzo[1,4]oxazine-4-sulfonyl)phenol]",5.52 to 6.00
12,"O=C(c1cc(Cl)c(O)c(Cl)c1)N1CCCCc2ccccc21 [Example 27, (3,5-dichloro-4-hydroxyphenyl)-(2,3,4,5-tetrahydrobenzo[b]azepin-1-yl)-methanone]",6.00 to 7.00
13,"O=C(c1cc([N+](=O)[O-])c(O)c([N+](=O)[O-])c1)N1CCOc2ccccc21 [Example 30, (2,3-dihydrobenzo[1,4]oxazin-4-yl)-(4-hydroxy-3,5-dinitrophenyl)-methanone]",6.00 to 7.00
14,"O=C(c1cc(Cl)c(O)c([N+](=O)[O-])c1)N1CCOc2ccccc21 [Example 31, (3-chloro-4-hydroxy-5-nitrophenyl)-(2,3-dihydrobenzo[1,4]oxazin-4-yl)-methanone]",> 7.00
15,"CN(C)S(=O)(=O)c1ccc2c(c1)N(C(=O)c1cc(Cl)c(O)c(Cl)c1)CCO2 [Example 35, 4-(3,5-dichloro-4-hydroxybenzoyl)-3,4-dihydro-2H-benzo[1,4]oxazine-6-sulfonic acid dimethylamide]",5.52 to 6.00
16,"O=C(c1cc(Cl)c(O)c(Cl)c1)N1CCOc2cccnc21 [Example 36, (3,5-dichloro-4-hydroxyphenyl)-(2,3-dihydropyrido[3,2-b][1,4]oxazin-4-yl)-methanone]",6.00 to 7.00
17,"O=C(c1cc(Cl)cc(Cl)c1O)N1CCOc2ccccc21 [Example 38, (3,5-dichloro-2-hydroxyphenyl)-(2,3-dihydrobenzo[1,4]oxazin-4-yl)-methanone]",6.00 to 7.00
